Data set [1] has as its system SARS-CoV-2. Nature of the data set: microbe, parasite or virus in culture. It counts as cell-based, SARS-CoV-2 (hCoV-19/Russia/Moscow-PMVL-12/2020 strain).
The test system of data set [2] is SARS-CoV-2. Nature of the data set: microbe, parasite or virus in culture. It counts as cell-based, SARS-CoV-2 (hCoV-19/Russia/Moscow-PMVL-12/2020 strain). This is another data set of the same source.
Data set [3] concerns Influenza A/California/7/2009 (H1N1)pdm09. Kind of data set: organism not typed. The class given is cell-based, Influenza virus.
Data set [4] deals with SARS-CoV-2 RdRp holoenzyme (nsp12, nsp7, nsp8) (Severe acute respiratory syndrome coronavirus 2, UniProt P0DTD1). Kind of data set: biochemical. The class given is biochemical.
Data set [5] has as its target T1, SARS-CoV-2 RdRp (Severe acute respiratory syndrome coronavirus 2, UniProt P0DTD1). Kind of data set: Electrophoretic mobility shift assay of RNA binding by RdRp. Particulars: 1 mM inhibitor incubated with RdRp before RNA substrate. Background: A gel shift assay detects complexes by their altered migration in electrophoresis.
In another data set the test system is Vero E6 cells. Particulars: African green monkey (Chlorocebus aethiops).
The test system of another data set is MDCK cells. Particulars: concentration decreasing cell number by 50%.
A further data set deals with SARS-CoV-2 PIK35 strain. Set-up: method as in PMID 35127150. Conditions: Vero cells, read-out: EC50, inhibition of the reproduction of SARS-CoV-2; cited from earlier work.
Data set [6] has as its target T1, SARS-CoV-2 RdRp. On the set-up: method as in PMID 33674802. Conditions: interferes with template and primer RNA binding; cited from earlier work.

What is called IC50 is the concentration that gives 50% inhibition. What is called EC50 is the concentration giving half of the maximal effect. On to `CCCCCc1ccc(-c2cc3cn(C4C=CC(O)C4)c(=O)nc3[nH]2)cc1` (stereo not shown) [Compound 1, 1-(4’-hydroxy-2’-cyclopenten-1-yl)-6-(4-pentylphenyl)-3H-pyrrolo [2,3-d]-pyrimidine-2-one], for which the log reduction at 10 µM in the data set on SARS-CoV-2 [1] (Severe acute respiratory syndrome coronavirus 2, Vero C1008, 96 h, measured at 10 µM (footnote *), Vero E6, vs DMSO, read-out: Δlog10(RNA), logarithmic change in the SARS-CoV-2 RNA levels) was 1.5. Also, the “Decrease of the amount of viral RNA” value in the data set with SARS-CoV-2 [1] (summary of Table 1) is over 10 fold. Moreover, the log reduction at 20 µM in the data set with SARS-CoV-2 [2] (Severe acute respiratory syndrome coronavirus 2, Vero C1008, measured at 20 µM, Vero E6, vs DMSO-treated control, read-out: Δlog10(TCID50) SARS-CoV-2) was found to be 1. In the data set on SARS-CoV-2 [2] (summary of Table 1), the “Decrease of the TCID50 value” is ~ 10 fold. The IC50 was over 50 µM in data set [3] (MDCK, read-out: IC50 ± SD Influenza Virus); 44 ± 2 µM in data set [4] (RdRp pre-incubated with inhibitor, then RNA substrate and ATP added, read-out: IC50 for inhibition of RdRp activity (RNA extension)). Moreover, the log reduction at 50 µM in data set [3] (at 50 µM, MDCK cells, read-out: Δlog10(TCID50) Influenza Virus) turned out to be 0. Moreover, the “Inhibition of RNA extension by RdRp” value in data set [4] (1 mM inhibitor pre-incubated with RdRp before RNA substrate (Figure 3A)) was “completely blocked RNA synthesis”. Also, at SARS-CoV-2 RdRp [5], the “Inhibition of RNA binding by RdRp, EMSA” value is reported as “fully prevented RNA binding”. In the data set on Vero E6 cells, the “CD50 ± SD Vero E6” value was 153 ± 5 µM. The “CD50 ± SD MDCK” value in the data set with MDCK cells came out at 89 ± 12 µM. Also, the EC50 with SARS-CoV-2 PIK35 strain was 21 µM.

Take `Cc1ccc(C(=O)Nc2ccc(S(=O)(=O)O)c3cc(S(=O)(=O)O)cc(S(=O)(=O)O)c23)cc1NC(=O)c1cccc(NC(=O)Nc2cccc(C(=O)Nc3cc(C(=O)Nc4ccc(S(=O)(=O)O)c5cc(S(=O)(=O)O)cc(S(=O)(=O)O)c45)ccc3C)c2)c1` [suramin]: on SARS-CoV-2 RdRp [6], the “Affinity of interaction with RdRp” value is recorded as “micromolar affinity”.
